IC50 data for 23 compounds are collected here from patent US20240368135A1 (VERTEX PHARMACEUTICALS INCORPORATED, priority 2021, published 2024).

Read-outs that look alike come from different tables or passages of the source.

The target of the test is human NaV 1.8 (Homo sapiens, UniProt Q9Y5Y9). The test can be described thus: E-VIPR assay detecting and measuring NaV inhibition properties. The conditions noted are these: HEK cells expressing truncated human NaV 1.8. The format is cell-based. The method in brief: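 Membrane potential was followed by coumarin/oxonol FRET during electrical field stimulation of matrigel-seeded HEK cells carrying truncated human NaV1.8 plus KIR2.1. Dosing used 11 points, 3-fold steps, top 300 nM final, 0.625% DMSO, with or without 25% human serum.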

[1] abbreviates: no human serum, read-out: IC50 in the E-VIPR Assay.

Sequence of human NaV 1.8 (Q9Y5Y9 126-399 limits assumed): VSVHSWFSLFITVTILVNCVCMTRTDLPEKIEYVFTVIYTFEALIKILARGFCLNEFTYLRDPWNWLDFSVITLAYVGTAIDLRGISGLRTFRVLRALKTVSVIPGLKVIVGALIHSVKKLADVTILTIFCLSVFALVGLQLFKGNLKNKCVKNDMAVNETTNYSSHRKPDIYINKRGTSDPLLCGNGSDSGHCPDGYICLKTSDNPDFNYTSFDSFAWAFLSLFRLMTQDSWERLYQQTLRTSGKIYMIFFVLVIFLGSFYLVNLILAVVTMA
Sequence of human NaV 1.8 (Q9Y5Y9 660-890 limits assumed): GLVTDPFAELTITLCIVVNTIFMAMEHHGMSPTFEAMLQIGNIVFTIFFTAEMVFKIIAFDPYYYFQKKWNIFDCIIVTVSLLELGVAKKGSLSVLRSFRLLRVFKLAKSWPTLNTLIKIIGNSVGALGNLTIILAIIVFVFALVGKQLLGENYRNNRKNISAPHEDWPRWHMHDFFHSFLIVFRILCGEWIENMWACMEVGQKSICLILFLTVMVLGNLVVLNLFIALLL
Sequence of human NaV 1.8 (Q9Y5Y9 1148-1722 limits assumed): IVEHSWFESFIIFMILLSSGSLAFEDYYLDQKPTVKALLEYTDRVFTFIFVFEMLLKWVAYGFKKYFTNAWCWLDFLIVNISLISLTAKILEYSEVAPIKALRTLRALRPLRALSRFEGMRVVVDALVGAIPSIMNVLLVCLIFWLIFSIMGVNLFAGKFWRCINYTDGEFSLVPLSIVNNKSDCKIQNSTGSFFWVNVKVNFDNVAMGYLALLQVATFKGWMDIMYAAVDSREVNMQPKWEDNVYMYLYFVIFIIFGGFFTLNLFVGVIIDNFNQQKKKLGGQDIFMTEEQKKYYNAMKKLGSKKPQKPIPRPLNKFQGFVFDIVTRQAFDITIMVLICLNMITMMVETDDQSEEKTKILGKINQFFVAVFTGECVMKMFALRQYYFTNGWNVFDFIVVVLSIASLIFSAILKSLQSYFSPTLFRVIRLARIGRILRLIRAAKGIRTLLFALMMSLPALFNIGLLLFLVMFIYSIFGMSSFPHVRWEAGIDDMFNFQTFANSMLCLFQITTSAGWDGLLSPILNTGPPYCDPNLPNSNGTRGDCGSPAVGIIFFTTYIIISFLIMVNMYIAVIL

Turning to `COc1c([C@H]2[C@H](C(=O)Nc3c(C)ncn3C)O[C@@](C)(C(F)(F)F)[C@H]2C)ccc(F)c1F` [Compound 319, (2R,3S,4S,5R)-3-(3,4-difluoro-2-methoxyphenyl)-N-(1,4-dimethyl-1H-imidazol-5-yl)-4,5-dimethyl-5-(trifluoromethyl)-tetrahydrofuran-2-carboxamide], under setting [1], the IC50 was not below 1000 nM.
Same read-out and setting: for `COCc1cc(CNC(=O)[C@@H]2O[C@@](C)(C(F)(F)F)[C@@H](C)[C@H]2c2ccc(F)c(F)c2OC)n[nH]1` [Compound 288, (2R,3S,4S,5R)-3-(3,4-difluoro-2-methoxyphenyl)-N-((5-(methoxymethyl)-1H-pyrazol-3-yl)methyl)-4,5-dimethyl-5-(trifluoromethyl)tetrahydrofuran-2-carboxamide] the value was not below 1000 nM; for `COc1c([C@H]2[C@H](C(=O)Nc3cnnc(N4C(=O)CN(C)C[C@H]4C)c3)O[C@@](C)(C(F)(F)F)[C@H]2C)ccc(F)c1F` [Compound 384, (2R,3S,4S,5R)-3-(3,4-difluoro-2-methoxyphenyl)-N-(6-((R)-2,4-dimethyl-6-oxopiperazin-1-yl)pyridazin-4-yl)-4,5-dimethyl-5-(trifluoromethyl)tetrahydrofuran-2-carboxamide], less than 10 nM.
On the same count and under the same terms, then `COCC(O)c1cc(NC(=O)[C@@H]2O[C@@](C)(C(F)(F)F)[C@@H](C)[C@H]2c2ccc(F)c(F)c2OCCN2CC(F)C2)ccn1` (single isomer, unassigned) [Compound 608, rel-(2R*,3S*,4S*,5R*)-3-(3,4-difluoro-2-(2-(3-fluoroazetidin-1-yl)ethoxy)phenyl)-N-(2-(1-hydroxy-2-methoxyethyl)pyridin-4-yl)-4,5-dimethyl-5-(trifluoromethyl)tetrahydrofuran-2-carboxamide], with 10 to 100 nM; and `COc1c([C@H]2[C@H](C(=O)Nc3cc(C(O)CN4CCOCC4)ncc3F)O[C@@](C)(C(F)(F)F)[C@H]2C)ccc(F)c1F` (single isomer, unassigned) [Compound 371, rel-(2R*,3S*,4S*,5R*)-3-(3,4-difluoro-2-methoxyphenyl)-N-(5-fluoro-2-(1-hydroxy-2-morpholinoethyl)pyridin-4-yl)-4,5-dimethyl-5-(trifluoromethyl)tetrahydrofuran-2-carboxamide], with 10 to 100 nM.
Same read-out and setting: then `COc1c(C2C(C(=O)Nc3cncnc3)OC(C)(C(F)(F)F)C2C)ccc(F)c1F` (single isomer, unassigned) [Compound 37, 3-(3,4-difluoro-2-methoxy-phenyl)-4,5-dimethyl-N-pyrimidin-5-yl-5-(trifluoromethyl)tetrahydrofuran-2-carboxamide], with not below 1000 nM; and `C[C@H]1[C@@H](c2ccc(F)c(F)c2O[C@H]2C[C@@H](O)C2)[C@H](C(=O)Nc2ccn(C)c(=O)c2)O[C@@]1(C)C(F)(F)F` [Compound 663, (2R,3S,4S,5R)-3-(3,4-difluoro-2-((1S,3R)-3-hydroxycyclobutoxy)phenyl)-4,5-dimethyl-N-(1-methyl-2-oxo-1,2-dihydropyridin-4-yl)-5-(trifluoromethyl)tetrahydrofuran-2-carboxamide], with 10 to 100 nM; and `COc1c([C@H]2[C@H](C(=O)Nc3ccnc(N4C(=O)[C@@H]5C[C@H]4CN5)c3)O[C@@](C)(C(F)(F)F)[C@H]2C)ccc(F)c1F` [Compound 483, (2R,3S,4S,5R)-3-(3,4-difluoro-2-methoxyphenyl)-4,5-dimethyl-N-(2-((1S,4S)-3-oxo-2,5-diazabicyclo[2.2.1]heptan-2-yl)pyridin-4-yl)-5-(trifluoromethyl)tetrahydrofuran-2-carboxamide], with 10 to 100 nM.
Regarding `COc1c([C@H]2[C@H](C(=O)NCCc3c(C)noc3C)O[C@@](C)(C(F)(F)F)[C@H]2C)ccc(F)c1F` [Compound 287, (2R,3S,4S,5R)-3-(3,4-difluoro-2-methoxyphenyl)-N-(2-(3,5-dimethylisoxazol-4-yl)ethyl)-4,5-dimethyl-5-(trifluoromethyl)tetrahydrofuran-2-carboxamide], the IC50 under setting [1] was not below 1000 nM.
Still for that read-out and setting: for `COc1c([C@H]2[C@H](C(=O)Nc3ccc(-c4cnco4)nc3)O[C@@](C)(C(F)(F)F)[C@H]2C)ccc(F)c1F` [Compound 394, (2R,3S,4S,5R)-3-(3,4-difluoro-2-methoxyphenyl)-4,5-dimethyl-N-(6-(oxazol-5-yl)pyridin-3-yl)-5-(trifluoromethyl)-tetrahydrofuran-2-carboxamide] the value was 100 to 1000 nM; for `COc1c([C@H]2[C@H](C(=O)Nc3cncc(N4C(=O)CN(C)C[C@H]4C)c3)O[C@@](C)(C(F)(F)F)[C@H]2C)ccc(F)c1F` [Compound 535, (2R,3S,4S,5R)-3-(3,4-difluoro-2-methoxyphenyl)-N-(5-((R)-2,4-dimethyl-6-oxopiperazin-1-yl)pyridin-3-yl)-4,5-dimethyl-5-(trifluoromethyl)tetrahydrofuran-2-carboxamide], 10 to 100 nM; for `COc1c([C@H]2[C@H](C(=O)Nc3cc(C4CN(C)CCO4)ncc3F)O[C@@](C)(C(F)(F)F)[C@H]2C)ccc(F)c1F` (single isomer, unassigned) [Compound 367, rel-(2R*,3S*,4S*,5R*)-3-(3,4-difluoro-2-methoxyphenyl)-N-(5-fluoro-2-(4-methylmorpholin-2-yl)pyridin-4-yl)-4,5-dimethyl-5-(trifluoromethyl)tetrahydrofuran-2-carboxamide], 10 to 100 nM.
Consider `CCOc1c(C2C(C(=O)Nc3ccnc(S(C)(=O)=NC)c3)OC(C)(C(F)(F)F)C2C)ccc(F)c1F` (centres unmarked) [Compound 113, N-[2-(N,S-dimethylsulfonimidoyl)-4-pyridyl]-3-(2-ethoxy-3,4-difluoro-phenyl)-4,5-dimethyl-5-(trifluoromethyl)tetrahydrofuran-2-carboxamide], for which, under setting [1], the IC50 is less than 10 nM.
Consider `C[C@H]1[C@@H](c2ccc(F)c(F)c2OCC2COC2)[C@H](C(=O)Nc2ccc3cnnn3c2)O[C@@]1(C)C(F)(F)F` [Compound 621, (2R,3S,4S,5R)-3-[3,4-difluoro-2-(oxetan-3-ylmethoxy)phenyl]-4,5-dimethyl-N-(triazolo[1,5-a]pyridin-6-yl)-5-(trifluoromethyl)tetrahydrofuran-2-carboxamide], for which, under setting [1], the IC50 is less than 10 nM.
`CCOc1c([C@@H]2[C@@H](C(=O)Nc3ccnc(S(C)(=N)=O)c3)O[C@](C)(C(F)(F)F)[C@@H]2C)ccc(F)c1F` (single isomer, unassigned) [Compound 10]: the IC50 under setting [1] is 100 to 1000 nM.
Same read-out and setting: then `COc1c([C@H]2[C@H](C(=O)Nc3ccc(C(C)(O)CF)nc3)O[C@@](C)(C(F)(F)F)[C@H]2C)ccc(F)c1F` (single isomer, unassigned) [Compound 224, rel-(2R*,3S*,4S*,5R*)-3-(3,4-difluoro-2-methoxyphenyl)-N-(6-(1-fluoro-2-hydroxypropan-2-yl)pyridin-3-yl)-4,5-dimethyl-5-(trifluoromethyl)tetrahydrofuran-2-carboxamide], with 100 to 1000 nM.
As to `COc1c([C@H]2[C@H](C(=O)Nc3cn(C4CCOCC4)nc3C)O[C@@](C)(C(F)(F)F)[C@H]2C)ccc(F)c1F` [Compound 325, (2R,3S,4S,5R)-3-(3,4-difluoro-2-methoxyphenyl)-4,5-dimethyl-N-(3-methyl-1-(tetrahydro-2H-pyran-4-yl)-1H-pyrazol-4-yl)-5-(trifluoromethyl)-tetrahydrofuran-2-carboxamide], under setting [1], the IC50 fell in the range of 10 to 100 nM.
For `COc1c(C2CC(C)(C(F)(F)F)OC2C(=O)Nc2ccnc(C(O)C(C)O)c2)ccc(F)c1F` (single isomer, unassigned) [Compound 694], the IC50 (in the presence of human serum (compound numbers followed by *), read-out: IC50 in the E-VIPR Assay, performed in the presence of human serum) was in the range of 10 to 100 nM.
For `COC[C@@H](O)Cc1cc(NC(=O)[C@@H]2O[C@@](C)(C(F)(F)F)[C@@H](C)[C@H]2c2ccc(F)c(F)c2OCCN2CCOCC2)ccn1` [Compound 596, (2R,3S,4S,5R)-3-(3,4-difluoro-2-(2-morpholinoethoxy)phenyl)-N-(2-((S)-2-hydroxy-3-methoxypropyl)pyridin-4-yl)-4,5-dimethyl-5-(trifluoromethyl)tetrahydrofuran-2-carboxamide], the IC50 under setting [1] is 10 to 100 nM.
Same read-out and setting: then `COc1c([C@H]2[C@H](C(=O)Nc3ccnc(N4C(=O)[C@H]5C[C@@H]4CN5C)c3)O[C@@](C)(C(F)(F)F)[C@H]2C)ccc(F)c1F` [Compound 490, (2R,3S,4S,5R)-3-(3,4-difluoro-2-methoxyphenyl)-4,5-dimethyl-N-(2-((1R,4R)-5-methyl-3-oxo-2,5-diazabicyclo[2.2.1]heptan-2-yl)pyridin-4-yl)-5-(trifluoromethyl)tetrahydrofuran-2-carboxamide], with 10 to 100 nM; and `COc1c([C@H]2[C@H](C(=O)N[C@@H]3C[C@H]3c3cnn(C)c3)O[C@@](C)(C(F)(F)F)[C@H]2C)ccc(F)c1F` (relative stereo) [Compound 266, rel-(2R*,3S*,4S*,5R*)-3-(3,4-difluoro-2-methoxyphenyl)-4,5-dimethyl-N-((1R,2S)-2-(1-methyl-1H-pyrazol-4-yl)cyclopropyl)-5-(trifluoromethyl)tetrahydrofuran-2-carboxamide], with not below 1000 nM.
The same measure, in the same setting: then `COc1c([C@H]2[C@H](C(=O)Nc3cn(S(C)(=O)=O)nc3C)O[C@@](C)(C(F)(F)F)[C@H]2C)ccc(F)c1F` [Compound 180, (2R,3S,4S,5R)-3-(3,4-difluoro-2-methoxyphenyl)-4,5-dimethyl-N-(3-methyl-1-(methylsulfonyl)-1H-pyrazol-4-yl)-5-(trifluoromethyl)tetrahydrofuran-2-carboxamide], with less than 10 nM; and `COC1CN(CCOc2c([C@H]3[C@H](C(=O)Nc4conc4C)O[C@@](C)(C(F)(F)F)[C@H]3C)ccc(F)c2F)C1` [Compound 627, (2R,3S,4S,5R)-3-(3,4-difluoro-2-(2-(3-methoxyazetidin-1-yl)ethoxy)phenyl)-4,5-dimethyl-N-(3-methylisoxazol-4-yl)-5-(trifluoromethyl)tetrahydrofuran-2-carboxamide], with 10 to 100 nM.
